The results in this text go back to US7579488B2 (Eli Lilly and Company, priority 2003, dated 2009).

Format in all cases: cell-based
For one test, the target named is T1, RXR-VDR heterodimer (Homo sapiens, UniProt P11473).
T1 construct: Add the Gal4-RXR-DEF and VP16-VDR-LBD; expressed in transfected cells; host or cells: SaOS-2 cells
T1 sequence (P11473 127-423 limits assumed): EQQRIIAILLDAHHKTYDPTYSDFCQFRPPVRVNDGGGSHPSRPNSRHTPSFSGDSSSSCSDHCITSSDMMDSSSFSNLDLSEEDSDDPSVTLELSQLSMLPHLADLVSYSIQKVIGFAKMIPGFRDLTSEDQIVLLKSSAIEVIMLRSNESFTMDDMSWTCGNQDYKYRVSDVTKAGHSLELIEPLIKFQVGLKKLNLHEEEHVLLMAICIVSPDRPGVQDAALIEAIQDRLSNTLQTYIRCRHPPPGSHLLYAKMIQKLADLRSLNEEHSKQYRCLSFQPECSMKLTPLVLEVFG
T1 sequence (P19793 201-462 partner limits assumed): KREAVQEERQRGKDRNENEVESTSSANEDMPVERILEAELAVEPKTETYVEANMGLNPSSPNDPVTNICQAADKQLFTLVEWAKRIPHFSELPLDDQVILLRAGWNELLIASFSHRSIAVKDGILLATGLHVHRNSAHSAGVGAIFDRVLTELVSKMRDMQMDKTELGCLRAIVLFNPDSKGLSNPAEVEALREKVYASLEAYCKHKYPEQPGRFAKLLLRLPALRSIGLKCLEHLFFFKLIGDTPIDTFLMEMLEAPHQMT
The test is described as follows: RXR-VDR heterodimerization assay (SaOS-2 cells). To be noted: Gal4-RXR-DEF/VP16-VDR-LBD luciferase reporter, several values in a cell separated by /. As for the experimental part:
1. The RXR-VDR Heterodimer Assay:
This assay provides the VDR activity of a test compound.
(1) Materials and Method for RXR-VDR Heterodimerization Assay:
Luciferase Assay Reagent: • Use Steady-Glo Luciferase Reagent from Promega (Cat #E2550) Consists of: a. E2533 Assay Substrate, lyopholized product and b. E2543 Assay Buffer. • Thaw at room temperature • Store Cell Harvesting Aspirate media from culture flask, rinse cells with HBSS and aspirate. Add trypsin and incubate. When cells appear detached, resuspend cells in growth media. Transfer into a new flask with fresh growth media for passaging the cells. Plate well plates and two extra plates A. Cell Count Mix the cell suspension using pipette Use Hematocytometer to count the cells Load cell suspension onto the hemocytometer chamber Count cells. […] In sterile flask add cell suspension to plating media. Mix. Add cells/well. Place the cells in the incubator. Cells should be about 75% confluent prior to transfection. DAY 2: Transfection Step 1: DNA and Media Add plain DMEM media to tubes for mixing the DNA Add the Reporter gene pFR-LUC Add the Gal4-RXR-DEF and VP16-VDR-LBD Step 2: FuGENE and Media Prepare plain DMEM media in a ubes for mixing FuGENE Add FuGENE 6 Transfection Reagent Incubate Step 3: FuGENE, DNA and Media Complex Add FuGENE Media complex from step 2 to DNA Media complex from step 1 Incubate Step 4: FuGENE, DNA and Media Complex to-well plate Add FuGENE-DNA-Media complex from step 3 to each plate Incubate. […] Day 4: Luciferase Assay Read the plates after drug treatment Remove part of media from all the wells and leave remainder Add Steady-Glo Luciferase Reagent mixture/wells Incubate Count each well using a Luminescence counter, Top Count NXT by Packard
Set a delay between plates to reduce the background.
For orientation: In a reporter assay the amount or activity of a reporter protein is the signal.

Another test relates to rat osteocalcin promoter. The test is described as follows: OCN (osteocalcin) promoter assay. To be noted: RG-15 (ROS 17/2.8) cells. As for the experimental part: 3. The OCN (Osteocalcin) Promoter Assay
The OCN Promoter Assay is an indicator and marker for osteoporosis. […] Preferred assay results are less than 50 nM.
(3) Materials and Method for The OCN Promoter Assay:
The activation of osteocalcin by VDR ligands was evaluated in a rat osteoblast-like cell line RG-15 (ROS 17/2.8) stably expressing rat osteocalcin promoter fused with luciferase reporter gene. […] Confluent RG-15 cells maintained in DMEM/F-12 medium (3:1) containing 5% FBS, 300 μg/ml G418 and at 37° C. under 5% CO2/95% air atmosphere were trypsinized (0.25% trypsin) and plated into white opaque 96-well cell culture plates (25000 cells/well). After 24 hr, cells (in DMEM/F-12 medium+2% FBS) were treated with various concentrations of compounds, dissolved in DMSO. The final DMSO concentration remained at 0.01% (v/v). After 48 hr treatment, the medium was removed, cells were lysed with 50 μl of lysis buffer (From Luciferase reporter assay system, Roche Diagnostics, Indianapolis, Ind.) and assayed for luciferase activity using the Luciferase Reporter Gene Assay kit from Boehringer Mannheim as per manufacturer's specifications.

The test system of the next test is KERtr cells. The test is described as follows: Keratinocyte proliferation assay. The conditions noted are these: Homo sapiens, 72 h, BrdU incorporation, several values separated by /, read-out: Kera. Prolif. IC50. The method, then:
5. The Keratinocyte Proliferation Assay
This Assay is indicative for the treatment of psoriasis.
(5) The Keratinocyte Proliferation Assay:
KERtr cells (Human skin keratinocyte transformed with a retrovirus vector, obtained from ATCC) were plated in 96-well flat-bottomed plates (3000 cells/well) in 100 μl keratinocyte serum free medium supplemented with bovine pituitary extract in the absence of EGF (Life Technologies, Rockville, Md.) and incubated at 37° C. for two days. The cells were treated with various concentrations of VDR ligands (ten-fold serial dilution from 10,000 nM to 0.1 nM in triplicate), dissolved in 100 μl keratinocyte serum free medium supplemented with bovine pituitary extract in the absence of EGF and incubated at 37° C. for 72 hr. […] Potency values (IC50) values were determined as the concentration (nM) of compound that elicited a half-maximal response.
Background: Uptake of a labelled nucleoside into DNA is a usual measure of proliferation.

Setting [1] is: Rattus norvegicus, 48 h, 48 hr treatment, luciferase, several values separated by /.
Setting [2] is: 48 hr treatment, luciferase, several values separated by /.

As usually defined, the pEC50 is the negative decadic logarithm of the EC50, by convention in mol/L. By pIC50 is commonly meant the IC50 on a negative log10 scale, so that one unit is a factor of ten.

pEC50, pIC50: −log10 of the molar value. “And” between values parts separate entries of the source, which are not always exact repeats. Equal entries are not always repeated.

As to `CCC(CC)(c1ccc(OCC(=O)C(C)(C)C)c(C)c1)c1cc2cc(C(=O)N(C)CC(=O)O)ccc2o1`, the negative-log EC50 (pEC50) was 8.05 on RXR-VDR heterodimer and 8.15 in the test with rat osteocalcin promoter (setting [1]). Besides, the negative logarithm of the IC50 (pIC50) with KERtr cells is 8.00.
As for `Cc1cc(C2(c3ccc(OCC(=O)C(C)(C)C)c(C)c3)CCCCC2)ccc1OCC(=O)C(C)(C)C` [CC, 1-(4-{1-[4-(3,3-Dimethyl-2-oxo-butoxy)-3-methyl-phenyl]-cyclohexyl}-2-methyl-phenoxy)-3,3-dimethyl-butan-2-one, reference compound], the negative logarithm of the EC50 (pEC50) in the test on rat osteocalcin promoter (Rattus norvegicus, comparison compounds) is 5.57.
In the case of `CCC(CC)(c1ccc(OCC2(C(C)(C)C)OCCO2)c(C)c1)c1cc2cc(C(=O)O)ccc2o1` [Ex 15, 2-{1-[4-(2-tert-Butyl-[1,3]dioxolan-2-ylmethoxy)-3-methyl-phenyl]-1-ethyl-propyl}-benzofuran-5-carboxylic acid], the pEC50 at RXR-VDR heterodimer is 5.87 and 6.20; in the test on rat osteocalcin promoter (setting [1]), 6.20.
On to `CCC(CC)(c1ccc(OCC2(C(C)(C)C)OCCO2)c(C)c1)c1cc2cc(C(=O)NCC(=O)O)ccc2o1` [Ex 16, [(2-{1-[4-(2-tert-butyl-[1,3]dioxolan-2-ylmethoxy)-3-methyl-phenyl]-1-ethyl-propyl}-benzofuran-5-carbonyl)-amino]-acetic acid], for which the pEC50 on RXR-VDR heterodimer is 6.24 and 7.15; in the test with rat osteocalcin promoter (setting [2]), 7.36; in the test on rat osteocalcin promoter (setting [1]), 7.57.
`CCC(CC)(c1ccc(OCC(O)C(C)(C)C)c(C)c1)c1cc(C)c2oc(C(=O)O)cc2c1` (stereo not drawn) [Ex 22, 5-{1-Ethyl-1-[4-(2-hydroxy-3,3-dimethyl-butoxy)-3-methyl-phenyl]-propyl}-7-methyl-benzofuran-2-carboxylic acid]: the pEC50 on RXR-VDR heterodimer was 7.57; with rat osteocalcin promoter (setting [1]), 9.00. Besides, the pIC50 with KERtr cells is 6.96.
For `CCC(CC)(c1ccc(OCC2(C(C)(C)C)OCCO2)c(C)c1)c1cc(C)c2oc(C(=O)O)cc2c1` [Ex 23, 5-{1-[4-(2-tert-Butyl-[1,3]dioxolan-2-ylmethoxy)-3-methyl-phenyl]-1-ethylpropyl}-7-methyl-benzofuran-2-carboxylic acid], the pEC50 at RXR-VDR heterodimer was 6.18 and 6.49; in the test on rat osteocalcin promoter (setting [2]), 7.06; with rat osteocalcin promoter (setting [1]) it was 6.90.
In the case of `CCC(CC)(c1ccc(OCC2(C(C)(C)C)OCCO2)c(C)c1)c1cc(C)c2oc(C(=O)NCC(=O)O)cc2c1` [Ex 24, [(5-{1-[4-(2-tert-butyl-[1,3]dioxolan-2-ylmethoxy)-3-methyl-phenyl]-1-ethyl-propyl}-7-methyl-benzofuran-2-carbonyl)-amino]-acetic acid], the pEC50 at RXR-VDR heterodimer is 6.07; with rat osteocalcin promoter (setting [1]) it was 6.37.
For the molecule `CCC(CC)(c1ccc(OCC2(C(C)(C)C)OCCO2)c(C)c1)c1cc(C)c2oc(C(=O)N(C)C)cc2c1` [Ex 25, 5-{1-[4-(2-tert-Butyl-[1,3]dioxolan-2-ylmethoxy)-3-methyl-phenyl]-1-ethyl-propyl}-7-methyl-benzofuran-2-carboxylic acid dimethylamide], the figures for the pEC50 on RXR-VDR heterodimer and in the test with rat osteocalcin promoter (setting [1]) were 7.17 and 6.00, respectively. In addition, the negative logarithm of the IC50 (pIC50) in the test with KERtr cells was 6.00.
In the case of `CCC(CC)(c1ccc(OCC(=O)C(C)(C)C)c(C)c1)c1cc(C)c2oc(C(=O)N(C)C)cc2c1` [Ex 26, 5-{1-[4-(3,3-Dimethyl-2-oxo-butoxy)-3-methyl-phenyl]-1-ethyl-propyl}-7-methyl-benzofuran-2-carboxylic acid dimethylamide], in the test on rat osteocalcin promoter (setting [1]), the pEC50 is 7.77.
In the case of `CCC(CC)(c1ccc(OCC(O)C(C)(C)C)c(C)c1)c1cc(C)c2oc(C(=O)N(C)C)cc2c1` (stereo not drawn) [Ex 27, 5-{1-Ethyl-1-[4-(2-hydroxy-3,3-dimethyl-butoxy)-3-methyl-phenyl]-propyl}-7-methyl-benzofuran-2-carboxylic acid dimethylamide], the pEC50 was 6.81 and 7.29 on RXR-VDR heterodimer; 7.77 in the test on rat osteocalcin promoter (setting [2]); 8.05 with rat osteocalcin promoter (setting [1]). Moreover, the pIC50 in the test on KERtr cells was < 6.00.
Regarding `CCC(CC)(c1ccc(OCC(O)C(C)(C)C)c(C)c1)c1cc(C)c2oc(C(=O)NCC(=O)O)cc2c1` (stereo not drawn) [Ex 29, [(5-{1-Ethyl-1-[4-(2-hydroxy-3,3-dimethyl-butoxy)-3-methyl-phenyl]-propyl}-7-methyl-benzofuran-2-carbonyl)-amino]-acetic acid], the negative-log EC50 (pEC50) on RXR-VDR heterodimer is 7.15; with rat osteocalcin promoter (setting [1]), 8.52. Moreover, the negative-log IC50 (pIC50) with KERtr cells is 6.38.
In the case of `CCC(CC)(c1ccc(OCC(=O)C(C)(C)C)c(C)c1)c1ccc2oc(C(=O)N(C)C)c(C)c2c1` [Ex 36, 5-{1-[4-(3,3-dimethyl-2-oxo-butoxy)-3-methyl-phenyl]-1-ethyl-propyl}-3-methyl-benzofuran-2-carboxylic acid dimethylamide], the pEC50 at RXR-VDR heterodimer was 6.27; in the test with rat osteocalcin promoter (setting [1]), 6.68.
On to `CCC(CC)(c1ccc(OCC(=O)C(C)(C)C)c(C)c1)c1cc2ccc(OS(C)(=O)=O)cc2o1` [Ex 40, methanesulfonic acid 2-{1-[4-(3,3-dimethyl-2-oxo-butoxy)-3-methyl-phenyl]-1-ethyl-propyl}-benzofuran-6-yl ester], for which the pEC50 at RXR-VDR heterodimer is 7.10.
As to `CCC(CC)(c1ccc(OCC(=O)C(C)(C)C)c(C)c1)c1cc2cc(C(=O)OC)ccc2o1` [Ex. 1], the pEC50 with rat osteocalcin promoter (setting [1]) is 9.00. In the test with KERtr cells, the negative logarithm of the IC50 (pIC50) is 7.15.
Take `CCC(CC)(c1ccc(OCC(O)C(C)(C)C)c(C)c1)c1cc2cc(C(=O)N(C)C)ccc2o1` (stereo not drawn) [Ex. 6, 2-{1-Ethyl-1-[4-(2-hydroxy-3,3-dimethyl-butoxy)-3-methyl-phenyl]-propyl}-benzofuran-5-carboxylic acid dimethylamide]: the pEC50 at RXR-VDR heterodimer is 6.39 and 7.10; in the test with rat osteocalcin promoter (setting [2]) it was 7.33; with rat osteocalcin promoter (setting [1]), 7.17.
Take `CCC(CC)(c1ccc(OCC(=O)C(C)(C)C)c(C)c1)c1cc2cc(C(=O)NC(C)(C)C(=O)O)ccc2o1` [Ex. 10, 2-[(2-{1-[4-(3,3-Dimethyl-2-oxo-butoxy)-3-methyl-phenyl]-1-ethyl-propyl}-benzofuran-5-carbonyl)-amino]-2-methyl-propionic acid]: the negative-log EC50 (pEC50) at RXR-VDR heterodimer was 6.63; in the test with rat osteocalcin promoter (setting [1]), 6.56. For the same molecule, the pIC50 with KERtr cells was 6.67.
